This assay addresses human 5-HT2C(VSV) (Homo sapiens, UniProt P28335, I156V/I160V/N158S). Briefly: cell-based.
Chain of human 5-HT2C(VSV) (P28335 33-458 I156V/N158S/I160V limits assumed): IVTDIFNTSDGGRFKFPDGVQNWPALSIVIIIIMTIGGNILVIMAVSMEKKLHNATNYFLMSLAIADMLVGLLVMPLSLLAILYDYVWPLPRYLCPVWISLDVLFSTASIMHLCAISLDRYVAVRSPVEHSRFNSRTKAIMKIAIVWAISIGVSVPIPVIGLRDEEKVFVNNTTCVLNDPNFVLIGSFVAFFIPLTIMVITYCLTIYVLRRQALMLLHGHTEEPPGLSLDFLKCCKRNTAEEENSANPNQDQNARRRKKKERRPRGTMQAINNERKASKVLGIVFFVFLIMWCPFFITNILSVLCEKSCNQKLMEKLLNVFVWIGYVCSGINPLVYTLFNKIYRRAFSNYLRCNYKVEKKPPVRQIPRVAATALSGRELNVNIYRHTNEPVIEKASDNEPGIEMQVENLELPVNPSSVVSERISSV
A word on the EC50: it is the concentration needed to bring the measured effect to its halfway point. Lower therefore signals greater potency. On to `CNCCc1cn(C)c2ccc(F)c(OCc3cccc(C(F)(F)F)c3)c12` [33-21, 2-(5-fluoro-1-methyl-4-(3-(trifluoromethyl)benzyloxy)-1H-indol-3-yl)-N-methylethanamine], for which the EC50 was 1 to 500 nM. `CNCCc1cn(C)c2ccc(F)c(OCc3ccc(Cl)cc3)c12` [33-20, 2-(4-(4-chlorobenzyloxy)-5-fluoro-1-methyl-1H-indol-3-yl)-N-methylethanamine] registered an EC50 of 1 to 500 nM. Next, `CN(C)CCc1cn(C)c2ccc(F)c(OCCc3ccccc3)c12` [18-2, 2-(5-fluoro-1-methyl-4-phenethoxy-1H-indol-3-yl)-N,N-dimethylethanamine]: 1 to 500 nM; `CCOc1c(F)ccc2c1c(CCNCCc1ccccc1)cn2C` [30-25, 2-(4-ethoxy-5-fluoro-1-methyl-1H-indol-3-yl)-N-phenethylethanamine]: 1 to 500 nM; `CCn1cc(CCN2Cc3ccccc3C2)c2c(O)cc(F)cc21` [31-4, 1-ethyl-6-fluoro-3-(2-(isoindolin-2-yl)ethyl)-1H-indol-4-ol]: 500 to 10000 nM. For `CCn1cc(CCN(C)C)c2c(OCc3ccc(OC(F)(F)F)cc3)cc(F)cc21` [1-11b, 2-(1-ethyl-6-fluoro-4-(4-(trifluoromethoxy)benzyloxy)-1H-indol-3-yl)-N,N-dimethylethanamine], the EC50 fell in the range of 500 to 10000 nM. Turning to `CCn1cc(CCNCCc2ccccc2)c2c(OCc3ccccc3)cc(F)cc21` [26-9, 2-(4-(benzyloxy)-1-ethyl-6-fluoro-1H-indol-3-yl)-N-phenethylethanamine], the EC50 fell in the range of 500 to 10000 nM. Compound `CCn1cc(CCNCCc2ccccc2)c2c(OC)ccc(F)c21` [20-7, 2-(1-ethyl-7-fluoro-4-methoxy-1H-indol-3-yl)-N-phenethylethanamine] registered an EC50 of 1 to 500 nM.

In turn, `CCn1cc(CCN(C)C)c2c(OCc3cc(F)ccc3C)cc(F)cc21` [1-17b, 2-(1-ethyl-6-fluoro-4-(5-fluoro-2-methylbenzyloxy)-1H-indol-3-yl)-N,N-dimethylethanamine] came in with an EC50 of 1 to 500 nM. `CCn1cc(CCN(C)CCc2cn(CC)c3cc(F)cc(OC)c23)c2c(OC)cc(F)cc21` [39-5, 2-(1-ethyl-6-fluoro-4-methoxy-1H-indol-3-yl)-N-(2-(1-ethyl-6-fluoro-4-methoxy-1H-indol-3-yl)ethyl)-N-methylethanamine] showed an EC50 of 1 to 500 nM. In turn, `COc1ccc(Nc2ccccc2)c2c1c(CCN(C)C)cn2C` [6-12, 3-(2-dimethylaminoethyl)-4-methoxy-1-methyl-N-phenyl-1H-indol-7-amine] gave an EC50 of 1 to 500 nM.

In turn, `CCn1cc(CCN2CCCC2)c2c(O)cc(F)cc21` [11-6, 1-ethyl-6-fluoro-3-(2-(pyrrolidin-1-yl)ethyl)-1H-indol-4-ol] yielded an EC50 of 1 to 500 nM. In the case of `CCn1cc(CCNCCOC)c2c(O)cc(F)cc21` [11-11, 1-ethyl-6-fluoro-3-(2-(2-methoxyethylamino)ethyl)-1H-inol-4-ol], the EC50 fell in the range of 1 to 500 nM. As to `CCn1cc(CCN(C)C)c2c(OCc3ccncc3)cc(F)cc21` [1-18b, 2-(1-ethyl-6-fluoro-4-(pyridin-4-ylmethoxy)-1H-indol-3-yl)-N,N-dimethylethanamine], the EC50 was 500 to 10000 nM.

In the case of `COc1c(F)ccc2c1c(CCN[C@@H]1CCCc3ccccc31)cn2C` [17-17, (R)-N-(2-(5-fluoro-4-methoxy-1-methyl-1H-indol-3-yl)ethyl)-1,2,3,4-tetrahydronaphthalen-1-amine], the EC50 is 1 to 500 nM. Next, `CCn1cc(CCNCc2ccccc2)c2c(O)cc(F)cc21` [26-8, 3-(2-(benzylamino)ethyl)-1-ethyl-6-fluoro-1H-indol-4-ol]: 1 to 500 nM. Compound `CCn1cc(CCNc2ccccc2)c2c(O)ccc(F)c21` [11-7, 1-ethyl-7-fluoro-3-(2-(phenylamino)ethyl)-1H-indol-4-ol] yielded an EC50 of 500 to 10000 nM.

`CCOc1c(F)ccc2c1c(CCN1CCCC1CO)cn2C` (centres unmarked) [30-24, (1-(2-(4-ethoxy-5-fluoro-1-methyl-1H-indol-3-yl)ethyl)pyrrolidin-2-yl)methanol] came in with an EC50 of 500 to 10000 nM. In turn, `CCn1cc(CCN(C)C)c2c(Oc3ccccc3)cc(F)cc21` [32-2, 2-(1-ethyl-6-fluoro-4-phenoxy-1H-indol-3-yl)-N,N-dimethylethanamine] yielded an EC50 of 500 to 10000 nM. The compound `CCn1cc(CCN(C)C)c2c(OCc3ccc(OC)cc3)cc(F)cc21` [1-15b, 2-(1-ethyl-6-fluoro-4-(4-methoxybenzyloxy)-1H-indol-3-yl)-N,N-dimethylethanamine] returned an EC50 of 1 to 500 nM. Consider `COc1c(F)ccc2c1c(CCN1CCc3ccc(Cl)cc3C(C)C1)cn2C` (centres unmarked) [17-8, 8-chloro-3-(2-(5-fluoro-4-methoxy-1-methyl-1H-indol-3-yl)ethyl)-1-methyl-2,3,4,5-tetrahydro-1H-benzo[d]azepine], for which the EC50 was 1 to 500 nM. Next, `CCn1cc(CCN(C)C)c2c(OCc3ccc(C(F)(F)F)cc3)cc(F)cc21` [1-12b, 2-(1-ethyl-6-fluoro-4-(4-(trifluoromethyl)benzyloxy)-1H-indol-3-yl)-N,N-dimethylethanamine]: 500 to 10000 nM.

Consider `CNCCc1cn(C)c2ccc(F)c(OCc3ccccc3OC(F)(F)F)c12` [33-34, 2-(5-fluoro-1-methyl-4-(2-(trifluoromethoxy)benzyloxy)-1H-indol-3-yl)-N-methylethanamine], for which the EC50 was 1 to 500 nM.

`CCn1cc(CCN(C)C)c2c(OCc3ccccc3C(F)(F)F)cc(F)cc21` [1-13b, 2-(1-ethyl-6-fluoro-4-(2-(trifluoromethyl)benzyloxy)-1H-indol-3-yl)-N,N-dimethylethanamine] returned an EC50 of 500 to 10000 nM. Next, `COc1c(F)ccc2c1c(CCNC(CO)c1ccccc1)cn2C` (centres unmarked) [34-9, 2-(2-(5-fluoro-4-methoxy-1-methyl-1H-indol-3-yl)ethylamino)-2-phenylethanol]: 1 to 500 nM. Regarding `CCn1cc(CCN2C[C@@H]3C[C@H]2CN3Cc2ccccc2)c2c(O)cc(F)cc21` [31-7, 3-(2-((1S,4S)-5-benzyl-2,5-diazabicyclo[2.2.1]heptan-2-yl)ethyl)-1-ethyl-6-fluoro-1H-indol-4-ol], the EC50 lay in the range of 500 to 10000 nM. Next, `CCn1cc(C2CCCNC2)c2c(O)cc(F)cc21` (centres unmarked) [38-4, 1-ethyl-6-fluoro-3-(piperidin-3-yl)-1H-indol-4-ol]: 1 to 500 nM; `CCn1cc(CCNCc2cccc(C(F)(F)F)c2)c2c(O)cc(F)cc21` [31-12, 1-ethyl-6-fluoro-3-(2-(3-(trifluoromethyl)benzylamino)ethyl)-1H-indol-4-ol]: 1 to 500 nM; `CCn1cc(CCNCc2ccccc2)c2c(OC)ccc(F)c21` [20-4, N-benzyl-2-(1-ethyl-7-fluoro-4-methoxy-1H-indol-3-yl)ethanamine]: 1 to 500 nM. The compound `COc1c(F)ccc2c1c(CCN1CCN(c3ccccc3)CC1)cn2C` [17-14, 5-fluoro-4-methoxy-1-methyl-3-(2-(4-phenylpiperazin-1-yl)ethyl)-1H-indole] had an EC50 of 500 to 10000 nM. On to `CN(C)CCc1cn(Cc2ccco2)c2c(F)ccc(OCc3ccccc3)c12` [24-1, 2-(4-(benzyloxy)-7-fluoro-1-(furan-2-ylmethyl)-1H-indol-3-yl)-N,N-dimethylethanamine], for which the concentration giving a half-maximal response (EC50) fell in the range of 1 to 500 nM.

`CCn1cc(CCNCCc2cccc(C(F)(F)F)c2)c2c(OCc3ccccc3)cc(F)cc21` [31-13, 2-(4-(benzyloxy)-1-ethyl-6-fluoro-1H-indol-3-yl)-N-(3-(trifluoromethyl)phenethyl)ethanamine] showed an EC50 of 1 to 500 nM. Next, `CCn1cc(CCNCC(C)c2ccccc2)c2c(O)cc(F)cc21` (centres unmarked) [39-6, 1-ethyl-6-fluoro-3-(2-(2-phenylpropylamino)ethyl)-1H-indol-4-ol]: 1 to 500 nM. Next, `CCOc1c(F)ccc2c1c(CCN1CCCC1)cn2C` [30-29, 4-ethoxy-5-fluoro-1-methyl-3-(2-(pyrrolidin-1-yl)ethyl)-1H-indole]: 1 to 500 nM; `CCn1cc(C2=CCNCC2)c2c(OCc3ccccc3)cc(F)cc21` [37-2, 4-(benzyloxy)-1-ethyl-6-fluoro-3-(1,2,3,6-tetrahydropyridin-4-yl)-1H-indole]: 500 to 10000 nM. Compound `CNCCc1cn(C)c2ccc(F)c(OCc3ccc(F)cc3)c12` [33-35, 2-(5-fluoro-4-(4-fluorobenzyloxy)-1-methyl-1H-indol-3-yl)-N-methylethanamine] had an EC50 of 1 to 500 nM. Next, `CN(CCc1cn(C)c2ccc(F)c(OCc3ccccc3C#N)c12)Cc1ccccc1C#N` [35-2, 2-((3-(2-((2-cyanobenzyl)(methyl)amino)ethyl)-5-fluoro-1-methyl-1H-indol-4-yloxy)methyl)benzonitrile]: 500 to 10000 nM; `Cn1cc(CCNCc2ccccc2)c2c(O)c(F)ccc21` [33-47, 3-(2-(benzylamino)ethyl)-5-fluoro-1-methyl-1H-indol-4-ol]: 1 to 500 nM. In the case of `CNCCc1cn(C)c2ccc(F)c(OCCc3ccccc3Cl)c12` [33-19, 2-(4-(2-chlorophenethoxy)-5-fluoro-1-methyl-1H-indol-3-yl)-N-methylethanamine], the EC50 lay within 500 to 10000 nM. `CCn1cc(CCN2Cc3ccccc3C2)c2c(OCc3ccccc3)cc(F)cc21` [31-3, 4-(benzyloxy)-1-ethyl-6-fluoro-3-(2-(isoindolin-2-yl)ethyl)-1H-indole] returned an EC50 of 500 to 10000 nM. `CNCCc1cn(C)c2ccc(F)c(OCc3ccc(Cl)c(OC(F)(F)F)c3)c12` [33-49, 2-(4-(4-chloro-3-(trifluoromethoxy)benzyloxy)-5-fluoro-1-methyl-1H-indol-3-yl)-N-methylethanamine] showed an EC50 of under 10000 nM. For the compound `CCn1cc(CCN(C)C)c2c(OC)c(CCc3nc4ccccc4[nH]3)cc(F)c21` [29-4, 2-(5-(2-(1H-benzo[d]imidazol-2-yl)ethyl)-1-ethyl-7-fluoro-4-methoxy-1H-indol-3-yl)-N,N-dimethylethanamine], the concentration giving a half-maximal response (EC50) was 1 to 500 nM. In turn, `CCn1cc(CCNCc2cccc(Cl)c2)c2c(OCc3ccccc3)cc(F)cc21` [31-9, 2-(4-(benzyloxy)-1-ethyl-6-fluoro-1H-indol-3-yl)-N-(3-chlorobenzyl)ethanamine] returned a half-maximal effective concentration (EC50) of 500 to 10000 nM.

Consider `CCCn1cc(CCN)c2c(OCc3ccc(Cl)cc3)c(F)ccc21` [18-3, 2-(4-(4-chlorobenzyloxy)-5-fluoro-1-propyl-1H-indol-3-yl)ethanamine], for which the EC50 was under 10000 nM.

(Values after patent US8912220B2 (priority 2009, dated 2014).)
